Laboratory results taken from patent US20260317324A1, “BIFUNCTIONAL COMPOUNDS FOR DEGRADING BRAF VIA UBIQUITIN PROTEOSOME PATHWAY” (Nurix Therapeutics, Inc., priority 2023, published 2026).

Molecular target: T1, BRAF V600E (Homo sapiens, UniProt P15056, V600E)
T1 construct: endogenous C-terminal HiBiT fusion tag on BRAF V600E allele; endogenous in cells; host or cells: A375 clone 1F10 (CRISPR-Cas9 knock-in of the HiBiT tag; parental A375 from ATCC)
Assay: BRAF HiBiT degradation assay, C-terminal HiBiT-tagged BRAF V600E A375 cells (clone 1F10), Nano-Glo HiBiT Lytic assay
Assay type: cell-based
Settings: for Dmax: A-375
Summary of the method: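 A375 cells (clone 1F10, endogenous C-terminal HiBiT on BRAF V600E) were seeded at 10,000 cells/well, grown 24 h, then dosed in duplicate with an 11-point series from 1 μM to 0.01 nM (0.2% DMSO). Nano-Glo HiBiT lytic luminescence was normalised to DMSO and wildtype-A375 background; DC50 was read at 50% protein remaining, alongside observed Dmax.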

[1] = A375 (BRAF V600E), DC50 at 50%: fitted conc. at Y=50
[2] = A375 (BRAF V600E), percentage protein degraded at maximal compound effect relative to DMSO

T1 sequence (P15056 whole entry V600E, the tested form may be a part): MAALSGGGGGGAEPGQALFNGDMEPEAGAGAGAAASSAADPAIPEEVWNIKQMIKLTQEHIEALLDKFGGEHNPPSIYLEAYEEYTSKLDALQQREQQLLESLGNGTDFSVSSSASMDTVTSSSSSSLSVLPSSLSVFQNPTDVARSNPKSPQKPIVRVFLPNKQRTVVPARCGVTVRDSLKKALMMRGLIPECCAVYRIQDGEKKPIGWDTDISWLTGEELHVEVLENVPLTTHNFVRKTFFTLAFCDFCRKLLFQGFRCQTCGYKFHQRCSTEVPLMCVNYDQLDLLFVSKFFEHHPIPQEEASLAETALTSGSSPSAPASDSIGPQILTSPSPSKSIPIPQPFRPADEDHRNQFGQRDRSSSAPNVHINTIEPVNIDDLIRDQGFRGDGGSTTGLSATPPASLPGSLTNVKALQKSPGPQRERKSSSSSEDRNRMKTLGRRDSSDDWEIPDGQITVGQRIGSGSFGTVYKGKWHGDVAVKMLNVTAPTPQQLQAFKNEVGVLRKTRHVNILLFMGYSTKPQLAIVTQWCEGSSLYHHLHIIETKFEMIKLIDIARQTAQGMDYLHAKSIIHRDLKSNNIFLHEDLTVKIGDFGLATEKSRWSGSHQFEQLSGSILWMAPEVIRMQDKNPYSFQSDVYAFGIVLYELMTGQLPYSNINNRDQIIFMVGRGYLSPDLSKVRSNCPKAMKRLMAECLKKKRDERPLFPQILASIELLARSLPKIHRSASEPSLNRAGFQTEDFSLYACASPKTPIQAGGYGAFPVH

CCCS(=O)(=O)Nc1cccc(-c2nc(C(C)(C)C)sc2-c2ccnc(Nc3ccc4c(c3)CCN(C(=O)CN3CCN(c5cc(C6CCC(=O)NC6=O)ccn5)CC3)C4)n2)c1F (racemic) [Compound 120, Rac-N-(3-{2-tert-butyl-5-[2-({2-[2-(4-{4-[(3R)-2,6-dioxopiperidin-3-yl]pyridin-2-yl}piperazin-1-yl)acetyl]-1,2,3,4-tetrahydroisoquinolin-6-yl}amino)pyrimidin-4-yl]-1,3-thiazol-4-yl}-2-fluorophenyl)propane-1-sulfonamide]
DC50 [1]: 50 to 500 nM | Dmax [2]: 30 to 70%

CCCS(=O)(=O)Nc1cccc(-c2nc(C3CCN(C(=O)C4(C)CCN(C(=O)C5CCN(c6ccc(C7CCC(=O)NC7=O)cn6)CC5)CC4)CC3)sc2-c2ccncc2)c1F (racemic) [Compound 182, Rac-N-[3-(2-{1-[1-(1-{5-[(3R)-2,6-dioxopiperidin-3-yl]pyridin-2-yl}piperidine-4-carbonyl)-4-methylpiperidine-4-carbonyl]piperidin-4-yl}-5-(pyridin-4-yl)-1,3-thiazol-4-yl)-2-fluorophenyl]propane-1-sulfonamide]
DC50 [1]: < 10 nM | Dmax [2]: > 70%

CCCS(=O)(=O)Nc1cccc(-c2nc(C)sc2-c2ccnc(Nc3ccc(C4CCN(CC5CCN(c6ccc([C@H]7CCC(=O)NC7=O)cc6)CC5)CC4)cc3)n2)c1F [Compound 63, N-[3-(5-{2-[(4-{1-[(1-{4-[(3R)-2,6-dioxopiperidin-3-yl]phenyl}piperidin-4-yl)methyl]piperidin-4-yl}phenyl)amino]pyrimidin-4-yl}-2-methyl-1,3-thiazol-4-yl)-2-fluorophenyl]propane-1-sulfonamide]
DC50 [1]: < 10 nM | Dmax [2]: > 70%

CCCS(=O)(=O)Nc1cccc(-c2nc(C(C)(C)C)sc2-c2ccnc(Nc3cnn(C4CCN(C(=O)C[C@@H]5CCN(c6ccc(C7CCC(=O)NC7=O)cc6)C5)CC4)c3)n2)c1F (mixture of isomers) [Compound 105, N-{3-[2-tert-butyl-5-(2-{[1-(1-{2-[(3S)-1-{4-[(3RS)-2,6-dioxopiperidin-3-yl]phenyl}pyrrolidin-3-yl]acetyl}piperidin-4-yl)-1H-pyrazol-4-yl]amino}pyrimidin-4-yl)-1,3-thiazol-4-yl]-2-fluorophenyl}propane-1-sulfonamide]
DC50 [1]: > 500 nM | Dmax [2]: 30 to 70%

CCCS(=O)(=O)Nc1cccc(-c2nc(C(C)(C)C)sc2-c2ccnc(Nc3cnn(CC4CCN(CC5CCN(c6ccc(C(=O)N[C@@H]7CCC(=O)NC7=O)nc6)CC5)CC4)c3)n2)c1F [Compound 66, 5-(4-{[4-({4-[(4-{2-tert-butyl-4-[2-fluoro-3-(propane-1-sulfonamido)phenyl]-1,3-thiazol-5-yl}pyrimidin-2-yl)amino]-1H-pyrazol-1-yl}methyl)piperidin-1-yl]methyl}piperidin-1-yl)-N-[(3R)-2,6-dioxopiperidin-3-yl]pyridine-2-carboxamide]
DC50 [1]: < 10 nM | Dmax [2]: > 70%

CCN(C)S(=O)(=O)Nc1cccc(-c2nc(C(C)(C)C)sc2-c2ccnc(Nc3ccc(N4CCN(C(=O)[C@H]5CC[C@H](CN6CCc7ccc(C8CCC(=O)NC8=O)cc7C6)CC5)CC4)cn3)n2)c1F (mixture of isomers) [Compound 124, Rac-(3S)-3-(2-{[(1r,4r)-4-{4-[6-({4-[2-tert-butyl-4-(3-{[ethyl(methyl)sulfamoyl]amino}-2-fluorophenyl)-1,3-thiazol-5-yl]pyrimidin-2-yl}amino)pyridin-3-yl]piperazine-1-carbonyl}cyclohexyl]methyl}-1,2,3,4-tetrahydroisoquinolin-7-yl)piperidine-2,6-dione]
DC50 [1]: 50 to 500 nM | Dmax [2]: 30 to 70%

CCCS(=O)(=O)Nc1cccc(-c2nc(C(C)(C)C)sc2-c2ccnc(Nc3cccc(C4CCN(C(=O)[C@@H]5CCN(c6ccc(C7CCC(=O)NC7=O)cn6)C5)CC4)c3)n2)c1F (mixture of isomers) [Compound 102, N-[3-(2-tert-butyl-5-{2-[(3-{1-[(3R)-1-{5-[(3RS)-2,6-dioxopiperidin-3-yl]pyridin-2-yl}pyrrolidine-3-carbonyl]piperidin-4-yl}phenyl)amino]pyrimidin-4-yl}-1,3-thiazol-4-yl)-2-fluorophenyl]propane-1-sulfonamide]
DC50 [1]: 10 to 50 nM | Dmax [2]: 30 to 70%

CCCS(=O)(=O)Nc1cccc(-c2nc(C(C)(C)C)sc2-c2ccnc(Nc3ccc(C4CCN(C(=O)C5CCN(c6ccc(C7CCC(=O)NC7=O)cc6)CC5)CC4)cc3)n2)c1F (racemic) [Compound 37, Rac-N-(3-{2-tert-butyl-5-[2-({4-[1-(1-{4-[(3R)-2,6-dioxopiperidin-3-yl]phenyl}piperidine-4-carbonyl)piperidin-4-yl]phenyl}amino)pyrimidin-4-yl]-1,3-thiazol-4-yl}-2-fluorophenyl)propane-1-sulfonamide]
DC50 [1]: 10 to 50 nM | Dmax [2]: 30 to 70%

CCCS(=O)(=O)Nc1cccc(-c2nc(C3CCN(C(=O)C4(C)CCN(C(=O)C5CCN(c6ccc(C7CCC(=O)NC7=O)cc6)CC5)CC4)CC3)sc2-c2ccnc(N)n2)c1F (racemic) [Compound 196, Rac-N-{3-[5-(2-aminopyrimidin-4-yl)-2-{1-[1-(1-{4-[(3R)-2,6-dioxopiperidin-3-yl]phenyl}piperidine-4-carbonyl)-4-methylpiperidine-4-carbonyl]piperidin-4-yl}-1,3-thiazol-4-yl]-2-fluorophenyl}propane-1-sulfonamide]
DC50 [1]: < 10 nM | Dmax [2]: > 70%

CCCS(=O)(=O)Nc1cccc(-c2nc(C(C)(C)C)sc2-c2ccnc(NC3CC4(CCN(C(=O)CN5CCN(c6ccc7c(c6)C(=O)N(C6CCC(=O)NC6=O)C7=O)CC5)CC4)C3)n2)c1F (racemic) [Compound 132, Rac-N-(3-{2-tert-butyl-5-[2-({7-[2-(4-{2-[(3R)-2,6-dioxopiperidin-3-yl]-1,3-dioxo-2,3-dihydro-1H-isoindol-5-yl}piperazin-1-yl)acetyl]-7-azaspiro[3.5]nonan-2-yl}amino)pyrimidin-4-yl]-1,3-thiazol-4-yl}-2-fluorophenyl)propane-1-sulfonamide]
DC50 [1]: 10 to 50 nM | Dmax [2]: 30 to 70%

CCCS(=O)(=O)Nc1cccc(-c2nc(C(C)(C)C)sc2-c2ccnc(Nc3ccc(N4CCN(CC5CCN(c6ccc([C@@H]7CCC(=O)NC7=O)cc6)CC5)CC4)c(F)c3)n2)c1F [Compound 88, N-[3-(2-tert-butyl-5-{2-[(4-{4-[(1-{4-[(3S)-2,6-dioxopiperidin-3-yl]phenyl}piperidin-4-yl)methyl]piperazin-1-yl}-3-fluorophenyl)amino]pyrimidin-4-yl}-1,3-thiazol-4-yl)-2-fluorophenyl]propane-1-sulfonamide]
DC50 [1]: 10 to 50 nM | Dmax [2]: 30 to 70%

CCCS(=O)(=O)Nc1cccc(-c2nc(C)sc2-c2ccnc(Nc3ccc(C4CCN(C(=O)C5CCN(c6ccc(C7CCC(=O)NC7=O)cn6)CC5)CC4)cc3)n2)c1F (racemic) [Compound 55, Rac-N-(3-{5-[2-({4-[1-(1-{5-[(3R)-2,6-dioxopiperidin-3-yl]pyridin-2-yl}piperidine-4-carbonyl)piperidin-4-yl]phenyl}amino)pyrimidin-4-yl]-2-methyl-1,3-thiazol-4-yl}-2-fluorophenyl)propane-1-sulfonamide]
DC50 [1]: 10 to 50 nM | Dmax [2]: > 70%

CCCS(=O)(=O)Nc1cccc(-c2nc(C(C)(C)C)sc2-c2ccnc(Nc3cccc(OC4CCN(C(=O)C[C@H]5CCN(c6ccc(C7CCC(=O)NC7=O)cc6)C5)CC4)c3)n2)c1F (mixture of isomers) [Compound 91, N-(3-{2-tert-butyl-5-[2-({3-[(1-{2-[(3R)-1-{4-[(3RS)-2,6-dioxopiperidin-3-yl]phenyl}pyrrolidin-3-yl]acetyl}piperidin-4-yl)oxy]phenyl}amino)pyrimidin-4-yl]-1,3-thiazol-4-yl}-2-fluorophenyl)propane-1-sulfonamide]
DC50 [1]: 50 to 500 nM | Dmax [2]: 30 to 70%

CCCS(=O)(=O)Nc1cccc(-c2nc(C3CCC4(CC3)CCN(C(=O)CC3CCN(C5CCN(c6ccc7c(c6)C(=O)N(C6CCC(=O)NC6=O)C7=O)CC5)CC3)CC4)sc2-c2ccnc(N)n2)c1F (racemic) [Compound 248, Rac-N-{3-[5-(2-aminopyrimidin-4-yl)-2-{3-[2-(1′-{2-[(3R)-2,6-dioxopiperidin-3-yl]-1,3-dioxo-2,3-dihydro-1H-isoindol-5-yl}-[1,4′-bipiperidin]-4-yl)acetyl]-3-azaspiro[5.5]undecan-9-yl}-1,3-thiazol-4-yl]-2-fluorophenyl}propane-1-sulfonamide]
DC50 (A375 (BRAF V600E, Class 1), DC50 at 50% degradation): < 10 nM | Dmax (A375 (BRAF V600E, Class 1), observed Dmax, % protein degraded relative to DMSO control): > 70%

CCCS(=O)(=O)Nc1cccc(-c2nc(C(C)(C)C)sc2-c2ccnc(Nc3cnn(CC4CCN(C(=O)C5CCN(c6ccc(C(=O)NC7CCC(=O)NC7=O)nc6)CC5)CC4)c3)n2)c1F (racemic) [Compound 115, Rac-5-{4-[4-({4-[(4-{2-tert-butyl-4-[2-fluoro-3-(propane-1-sulfonamido)phenyl]-1,3-thiazol-5-yl}pyrimidin-2-yl)amino]-1H-pyrazol-1-yl}methyl)piperidine-1-carbonyl]piperidin-1-yl}-N-[(3R)-2,6-dioxopiperidin-3-yl]pyridine-2-carboxamide]
DC50 [1]: 50 to 500 nM | Dmax [2]: 30 to 70%

CCN(C)S(=O)(=O)Nc1cccc(-c2nc(C)sc2-c2ccnc(Nc3ccc(N4CCN(C(=O)CC5CCN(c6ccc(C7CCC(=O)NC7=O)cn6)CC5)CC4)cn3)n2)c1F (racemic) [Compound 39, Rac-(3R)-3-{6-[4-(2-{4-[6-({4-[4-(3-{[ethyl(methyl)sulfamoyl]amino}-2-fluorophenyl)-2-methyl-1,3-thiazol-5-yl]pyrimidin-2-yl}amino)pyridin-3-yl]piperazin-1-yl}-2-oxoethyl)piperidin-1-yl]pyridin-3-yl}piperidine-2,6-dione]
DC50 [1]: < 10 nM | Dmax [2]: > 70%
